# Biological target: ATR/ATRIP (Homo sapiens (Human), UniProt Q13535)
# Assay: ATR/ATRIP enzymatic assay (AlphaScreen, phosphorylation of p53)
# Conditions: not given
# ATR/ATRIP, sequence (Q13535 whole entry): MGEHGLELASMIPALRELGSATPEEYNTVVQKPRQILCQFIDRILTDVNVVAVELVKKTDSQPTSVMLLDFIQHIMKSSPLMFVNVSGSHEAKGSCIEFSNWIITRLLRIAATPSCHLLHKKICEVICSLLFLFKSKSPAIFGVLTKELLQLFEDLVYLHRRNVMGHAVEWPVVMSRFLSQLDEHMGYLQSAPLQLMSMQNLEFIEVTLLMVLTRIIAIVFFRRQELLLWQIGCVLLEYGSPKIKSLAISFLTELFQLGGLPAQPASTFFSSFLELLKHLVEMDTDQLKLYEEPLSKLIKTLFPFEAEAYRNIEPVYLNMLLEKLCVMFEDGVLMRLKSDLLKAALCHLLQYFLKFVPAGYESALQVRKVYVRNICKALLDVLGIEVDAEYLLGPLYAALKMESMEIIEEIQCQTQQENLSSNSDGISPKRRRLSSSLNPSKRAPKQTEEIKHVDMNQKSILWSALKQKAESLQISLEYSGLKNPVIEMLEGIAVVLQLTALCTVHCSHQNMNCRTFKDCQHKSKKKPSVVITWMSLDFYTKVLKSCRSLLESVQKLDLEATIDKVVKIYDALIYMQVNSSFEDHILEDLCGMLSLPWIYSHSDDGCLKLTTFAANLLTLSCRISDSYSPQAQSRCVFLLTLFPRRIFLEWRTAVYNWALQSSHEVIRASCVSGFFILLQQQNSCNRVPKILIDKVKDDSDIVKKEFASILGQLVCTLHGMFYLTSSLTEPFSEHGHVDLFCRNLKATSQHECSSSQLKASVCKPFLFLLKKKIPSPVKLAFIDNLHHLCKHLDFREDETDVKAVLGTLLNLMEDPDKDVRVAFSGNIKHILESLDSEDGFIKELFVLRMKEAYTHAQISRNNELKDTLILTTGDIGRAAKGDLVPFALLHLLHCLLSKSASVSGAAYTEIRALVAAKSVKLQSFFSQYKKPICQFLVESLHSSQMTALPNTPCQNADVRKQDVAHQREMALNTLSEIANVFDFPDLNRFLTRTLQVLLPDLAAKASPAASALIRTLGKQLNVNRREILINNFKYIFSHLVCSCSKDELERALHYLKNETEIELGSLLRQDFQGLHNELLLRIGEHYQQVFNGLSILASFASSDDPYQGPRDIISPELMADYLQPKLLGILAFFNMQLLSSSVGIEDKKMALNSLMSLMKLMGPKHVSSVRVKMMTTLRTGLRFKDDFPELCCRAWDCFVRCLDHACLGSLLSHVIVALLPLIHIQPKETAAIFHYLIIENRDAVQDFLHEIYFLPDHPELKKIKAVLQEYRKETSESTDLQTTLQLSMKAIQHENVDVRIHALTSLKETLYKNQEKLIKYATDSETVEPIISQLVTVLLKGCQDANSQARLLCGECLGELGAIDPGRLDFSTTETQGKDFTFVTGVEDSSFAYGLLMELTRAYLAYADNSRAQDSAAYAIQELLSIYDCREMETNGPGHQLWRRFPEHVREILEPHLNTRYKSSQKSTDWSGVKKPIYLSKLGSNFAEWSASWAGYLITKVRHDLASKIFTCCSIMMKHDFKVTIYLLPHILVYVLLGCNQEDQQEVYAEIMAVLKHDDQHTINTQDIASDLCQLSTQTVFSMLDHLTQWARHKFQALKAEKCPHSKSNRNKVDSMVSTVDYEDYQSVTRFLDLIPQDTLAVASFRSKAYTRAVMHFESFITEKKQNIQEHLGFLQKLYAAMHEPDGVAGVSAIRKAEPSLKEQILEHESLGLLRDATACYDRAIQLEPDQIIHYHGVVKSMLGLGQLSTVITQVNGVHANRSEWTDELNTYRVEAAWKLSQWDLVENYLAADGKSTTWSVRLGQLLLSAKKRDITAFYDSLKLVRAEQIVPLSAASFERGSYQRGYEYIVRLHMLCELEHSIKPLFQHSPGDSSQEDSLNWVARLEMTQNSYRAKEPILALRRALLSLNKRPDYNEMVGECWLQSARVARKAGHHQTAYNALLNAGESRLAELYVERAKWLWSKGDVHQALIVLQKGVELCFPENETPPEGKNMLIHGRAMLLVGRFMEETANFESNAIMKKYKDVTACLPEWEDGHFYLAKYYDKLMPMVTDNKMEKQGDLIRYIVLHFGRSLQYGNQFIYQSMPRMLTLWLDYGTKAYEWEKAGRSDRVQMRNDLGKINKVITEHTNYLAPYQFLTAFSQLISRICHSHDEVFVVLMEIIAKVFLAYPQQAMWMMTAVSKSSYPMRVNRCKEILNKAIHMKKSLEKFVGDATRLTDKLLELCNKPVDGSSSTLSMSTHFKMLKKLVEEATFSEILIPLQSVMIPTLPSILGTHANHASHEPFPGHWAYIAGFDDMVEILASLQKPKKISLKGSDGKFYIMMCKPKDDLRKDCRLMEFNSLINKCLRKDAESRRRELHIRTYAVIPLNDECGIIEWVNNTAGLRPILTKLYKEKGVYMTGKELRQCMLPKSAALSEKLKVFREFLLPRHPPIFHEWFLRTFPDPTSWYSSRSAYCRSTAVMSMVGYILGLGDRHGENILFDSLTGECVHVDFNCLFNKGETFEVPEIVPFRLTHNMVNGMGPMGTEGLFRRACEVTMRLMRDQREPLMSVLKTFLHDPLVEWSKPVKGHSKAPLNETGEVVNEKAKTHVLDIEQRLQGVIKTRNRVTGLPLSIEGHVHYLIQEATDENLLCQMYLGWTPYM
# ATR/ATRIP, sequence (Q8WXE1 whole entry partner): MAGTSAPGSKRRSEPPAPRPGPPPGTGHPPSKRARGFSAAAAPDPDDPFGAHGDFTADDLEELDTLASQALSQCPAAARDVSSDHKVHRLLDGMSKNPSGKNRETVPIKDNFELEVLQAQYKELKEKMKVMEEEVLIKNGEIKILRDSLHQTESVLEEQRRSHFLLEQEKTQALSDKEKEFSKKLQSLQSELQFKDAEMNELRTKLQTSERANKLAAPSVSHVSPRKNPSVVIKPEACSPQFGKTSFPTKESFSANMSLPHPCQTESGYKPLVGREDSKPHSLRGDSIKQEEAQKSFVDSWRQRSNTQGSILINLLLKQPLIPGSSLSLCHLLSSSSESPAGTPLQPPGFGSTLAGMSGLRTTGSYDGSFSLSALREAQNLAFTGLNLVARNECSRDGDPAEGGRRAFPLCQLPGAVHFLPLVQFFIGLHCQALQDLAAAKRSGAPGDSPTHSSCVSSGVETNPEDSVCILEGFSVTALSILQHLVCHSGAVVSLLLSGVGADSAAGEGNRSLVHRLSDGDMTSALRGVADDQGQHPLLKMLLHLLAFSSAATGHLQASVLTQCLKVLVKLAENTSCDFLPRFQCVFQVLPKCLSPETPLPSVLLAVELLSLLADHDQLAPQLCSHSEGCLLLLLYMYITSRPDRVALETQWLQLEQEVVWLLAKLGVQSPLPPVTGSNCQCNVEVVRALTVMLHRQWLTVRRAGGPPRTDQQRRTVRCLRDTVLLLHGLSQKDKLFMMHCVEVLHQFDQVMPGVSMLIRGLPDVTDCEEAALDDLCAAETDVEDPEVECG
row,IC50,Structure (SMILES)
1,0.448 µM,C[C@@H]1COCCN1c1cc(C(C)(C)C#N)c2cnn(Cc3ccn[nH]3)c2n1 [Compound 66]

# Same assay, conditions: read-out: ATR IC50; recombinant ATR/ATRIP 0.63 nM, 25 nM GST-p53, 3 μM ATP, 1 hour room temperature
row,Structure (SMILES),IC50
1,C[C@@H]1COCCN1c1cc(-c2ccccc2F)c2cnn(-c3ccn[nH]3)c2n1 [Compound 48],0.005 µM
2,"Cc1cn(-c2cc[nH]n2)c2nc(N3CCOC[C@H]3C)cc(C(C)(C)C#N)c12 [Compound 7, (R)-2-methyl-2-(3-methyl-6-(3-methylmorpholino)-1-(1H-pyrazol-3-yl)-1H-pyrrolo[2,3-b]pyridin-4-yl)propanenitrile]",0.403 µM
3,C[C@@H]1COCCN1c1cc(C(=O)N2CCOCC2)c2ccn(-c3cc[nH]n3)c2n1 [Compound 18],1.94 µM
4,C[C@@H]1COCCN1c1cc(C(C)(C)O)c2cnn(-c3ccccn3)c2n1 [Compound 63],0.011 µM
5,C[C@@H]1COCCN1c1cc(CC#N)c2cnn(-c3cc[nH]n3)c2n1 [Compound 32],0.054 µM
6,Cc1ccnc(-n2ncc3c(C(C)(C)O)cc(N4CCOC[C@H]4C)nc32)c1 [Compound 64],0.092 µM
7,C[C@@H]1COCCN1c1cc(-c2ccncn2)c2ccn(-c3cc[nH]n3)c2n1 [Compound 13],1.65 µM
8,C[C@@H]1COCCN1c1cc(C(C)(C)O)c2ccn(-c3cc[nH]n3)c2n1 [Compound 10],1.6 µM
9,C[C@@H]1COCCN1c1cc(-c2ccncc2)c2ccn(-c3cc[nH]n3)c2n1 [Compound 15],1.87 µM
10,COc1cc(-c2cc(N3CCOC[C@H]3C)nc3c2ccn3-c2cc[nH]n2)ccn1 [Compound 39],> 10 µM
11,C[C@@H]1COCCN1c1cc(C(=O)N(C)Cc2ccccc2)c2ccn(-c3cc[nH]n3)c2n1 [Compound 19],0.54 µM
12,C[C@@H]1COCCN1c1cc(-c2ccc(S(C)(=O)=O)cc2)c2cnn(-c3ccn[nH]3)c2n1 [Compound 89],0.031 µM
13,C[C@@H]1COCCN1c1cc(-c2cccs2)c2ccn(-c3cc[nH]n3)c2n1 [Compound 41],> 10 µM
14,C[C@@H]1COCCN1c1cc(C2(S(C)(=O)=O)CC2)c2ccn(-c3cn[nH]c3C(F)(F)F)c2n1 [Compound 37],> 1 µM
15,C[C@@H]1COCCN1c1cc(C(C)(C)C#N)c2cnn(-c3ncc[nH]3)c2n1 [Compound 90],0.165 µM
16,C[C@@H]1COCCN1c1cc(C(C)(C)C(N)=O)c2ccn(-c3cc[nH]n3)c2n1 [Compound 12],0.379 µM
17,C[C@@H]1COCCN1c1cc(C2(S(C)(=O)=O)CC2)c2ccn(-c3cn[nH]c3)c2n1 [Compound 38],> 1 µM
18,C[C@@H]1COCCN1c1cc(-c2ccccc2[S+](C)[O-])c2ccn(-c3cc[nH]n3)c2n1 (stereo partly shown) [Compound 20],0.229 µM
19,C[C@@H]1COCCN1c1cc(C(C)(C)O)c2cnn(-c3cccc(N)n3)c2n1 [Compound 65],0.104 µM
20,C[C@@H]1COCCN1c1cc(-c2cccc(S(C)(=O)=O)c2)c2cnn(-c3ccn[nH]3)c2n1 [Compound 92],0.008 µM

row,Structure (SMILES),IC50
1,C[C@@H]1COCCN1c1cc(N(C)c2cccnc2)c2ccn(-c3cc[nH]n3)c2n1 [Compound 22],0.876 µM
2,C[C@@H]1COCCN1c1cc(N2CCNC(=O)C2)c2cnn(-c3ccn[nH]3)c2n1 [Compound 87],0.01 µM
3,"C[C@@H]1COCCN1c1cc(-c2ccccc2S(C)(=O)=O)c2ccn(-c3cc[nH]n3)c2n1 [Compound 6, (R)-3-methyl-4-(4-(2-(methylsulfonyl)phenyl)-1-(1H-pyrazol-3-yl)-1H-pyrrolo[2,3-b]pyridin-6-yl)morpholine]",0.425 µM
4,C[C@@H]1COCCN1c1cc(C(C)(C)C#N)c2ccn(-c3cc[nH]n3)c2n1 [Compound 11],0.101 µM
5,COc1ccc(-c2cc(N3CCOC[C@H]3C)nc3c2c(C)cn3-c2cc[nH]n2)cn1 [Compound 21],0.828 µM
6,COc1ccc(-c2cc(N3CCOC[C@H]3C)nc3c2ccn3-c2cc[nH]n2)cn1 [Compound 16],1.52 µM
7,CC(C)c1cc(N2CCOC[C@H]2C)nc2c1ccn2-c1cc[nH]n1 [Compound 31],1.42 µM
8,C[C@@H]1COCCN1c1cc(C2(O)CCN(C)CC2)c2cnn(-c3cc[nH]n3)c2n1 [Compound 60],0.037 µM
9,C[C@@H]1COCCN1c1cc(-c2ccccc2F)c2cnn(-c3ccn[nH]3)c2n1 [Compound 91],< 0.005 µM
10,Cc1ccc(-c2cc(N3CCOC[C@H]3C)nc3c2ccn3-c2cc[nH]n2)nn1 [Compound 14],1.15 µM
11,Cc1ccncc1-c1cc(N2CCOC[C@H]2C)nc2c1ccn2-c1cc[nH]n1 [Compound 9],0.037 µM
12,Cc1cc(-n2ncc3c(C(C)(C)C#N)cc(N4CCOC[C@H]4C)nc32)[nH]n1 [Compound 86],< 0.005 µM
13,C[C@@H]1COCCN1c1cc(Nc2cccnc2)c2ccn(-c3cc[nH]n3)c2n1 [Compound 17],1.21 µM
14,Cc1c[nH]nc1-n1ccc2c(C3(S(C)(=O)=O)CC3)cc(N3CCOC[C@H]3C)nc21 [Compound 36],> 1 µM
15,C[C@@H]1COCCN1c1cc(C(C)(C)O)c2cnn(-c3cccnn3)c2n1 [Compound 67],0.198 µM
16,C[C@@H]1COCCN1c1cc(C(C)(C)C#N)c2cnn(-c3n[nH]cc3F)c2n1 [Compound 68],1.34 µM
17,COC(C)(C)c1cc(N2CCOC[C@H]2C)nc2c1ccn2-c1cc[nH]n1 [Compound 30],0.284 µM
18,C[C@@H]1COCCN1c1cc(-c2ccnn2C)c2ccn(-c3cc[nH]n3)c2n1 [Compound 34],0.451 µM
19,C=Cc1nn(-c2cc[nH]n2)c2nc(N3CCOC[C@H]3C)cc(C(C)(C)C#N)c12 [Compound 71],< 0.005 µM

# The next lines start with the values.
row,IC50,Structure (SMILES)
1,0.264 µM,C[C@@H]1COCCN1c1cc(C(N)=O)c2cnn(-c3cc[nH]n3)c2n1 [Compound 23]
2,0.094 µM,C[C@@H]1COCCN1c1cc(-c2nncs2)c2cnn(-c3cc[nH]n3)c2n1 [Compound 72]
3,0.141 µM,COc1cc(N2CCOC[C@H]2C)nc2c1cnn2-c1cc[nH]n1 [Compound 51]
4,0.005 µM,C[C@@H]1COCCN1c1cc(C2(C(N)=O)CCCCC2)c2cnn(-c3cc[nH]n3)c2n1 [Compound 77]
5,0.024 µM,C[C@@H]1COCCN1c1cc(C2(CN)CCCCC2)c2cnn(-c3cc[nH]n3)c2n1 [Compound 78]
6,0.023 µM,C[C@@H]1COCCN1c1cc(N2CCCS2(=O)=O)c2cnn(-c3cc[nH]n3)c2n1 [Compound 54]
7,0.005 µM,C[C@@H]1COCCN1c1cc(S(=O)(=O)C2CC2)c2cnn(-c3cc[nH]n3)c2n1 [Compound 45]
8,0.008 µM,C[C@@H]1COCCN1c1cc(C2(C#N)CCSCC2)c2cnn(-c3cc[nH]n3)c2n1 [Compound 74]
9,0.58 µM,C[C@@H]1COCCN1c1cc(C2(C#N)CC2)c2ccn(-c3cc[nH]n3)c2n1 [Compound 29]
10,0.036 µM,C[C@@H]1COCCN1c1cc(C2(C#N)CCS(=O)(=O)CC2)c2cnn(-c3cc[nH]n3)c2n1 [Compound 76]
11,0.032 µM,C[C@@H]1COCCN1c1cc(I)c2cnn(-c3ccn[nH]3)c2n1 [Compound 42]
12,0.009 µM,C[C@@H]1COCCN1c1cc(C2(C#N)CCNC2)c2cnn(-c3cc[nH]n3)c2n1 (stereo partly shown) [Compound 84]
13,0.029 µM,C[C@@H]1COCCN1c1cc(C2(C#N)CC[S+]([O-])CC2)c2cnn(-c3cc[nH]n3)c2n1 (stereo partly shown) [Compound 75]
14,0.017 µM,C[C@@H]1COCCN1c1cc(C2(C#N)CNC2)c2cnn(-c3cc[nH]n3)c2n1 [Compound 82]
15,0.011 µM,C[C@@H]1COCCN1c1cc(C(C)(C#N)C2COC2)c2cnn(-c3cc[nH]n3)c2n1 (stereo partly shown) [Compound 49]
16,0.003 µM,"C[C@@H]1COCCN1c1cc(C2(C#N)CCCCC2)c2cnn(-c3cc[nH]n3)c2n1 [Compound 5, (R)-1-(6-(3-methylmorpholino)-1-(1H-pyrazol-3-yl)-1H-pyrazolo[3,4-b]pyridin-4-yl)cyclohexane-1-carbonitrile]"
17,0.009 µM,C[C@@H]1COCCN1c1cc(N2CCCCS2(=O)=O)c2cnn(-c3cc[nH]n3)c2n1 [Compound 53]

row,IC50,Structure (SMILES)
1,0.008 µM,C[C@@H]1COCCN1c1cc(C2(C#N)CCN(C(=O)OC(C)(C)C)CC2)c2cnn(-c3cc[nH]n3)c2n1 [Compound 81]
2,0.135 µM,C[C@@H]1COCCN1c1cc(C2(C#N)CCC2)c2cnn(-c3cc[nH]n3)c2n1 [Compound 27]
3,0.003 µM,C[C@@H]1COCCN1c1cc(C2(C#N)CCOCC2)c2cnn(-c3cc[nH]n3)c2n1 [Compound 73]
4,0.01 µM,C[C@@H]1COCCN1c1cc(C2(O)CCC(C)(C#N)CC2)c2cnn(-c3cc[nH]n3)c2n1 (stereo partly shown) [Compound 59]
5,0.002 µM,C[C@@H]1COCCN1c1cc(C2(O)CCC3(CC2)CSC3)c2cnn(-c3cc[nH]n3)c2n1 [Compound 61]
6,0.008 µM,C[C@@H]1COCCN1c1cc(N(C)S(C)(=O)=O)c2cnn(-c3cc[nH]n3)c2n1 [Compound 52]
7,0.006 µM,C[C@@H]1COCCN1c1cc(C(C)(C)C#N)c2cnn(-c3cc[nH]n3)c2n1 [Compound 24]
8,0.004 µM,C[C@@H]1COCCN1c1cc(C2(C#N)CCCC2)c2cnn(-c3cc[nH]n3)c2n1 [Compound 28]
9,0.027 µM,C[C@@H]1COCCN1c1cc(S(C)(=O)=O)c2cnn(-c3cc[nH]n3)c2n1 [Compound 44]
10,0.03 µM,C[C@@H]1COCCN1c1cc(C2(C#N)CN(C(=O)OC(C)(C)C)C2)c2cnn(-c3cc[nH]n3)c2n1 [Compound 79]
11,0.554 µM,C[C@@H]1COCCN1c1nc2c(cnn2-c2cc[nH]n2)c(C(C)(C)C#N)c1Cl [Compound 69]
12,0.006 µM,C[C@@H]1COCCN1c1cc(C2(C#N)CCN(C(=O)OC(C)(C)C)C2)c2cnn(-c3cc[nH]n3)c2n1 (stereo partly shown) [Compound 80]
13,0.116 µM,C[C@@H]1COCCN1c1cc(S(=O)(=O)c2ccccc2)c2cnn(-c3cc[nH]n3)c2n1 [Compound 50]
14,0.056 µM,"C[C@@H]1COCCN1c1cc(C(C)(C)C(N)=O)c2cnn(-c3cc[nH]n3)c2n1 [Compound 4, (R)-2-methyl-2-(6-(3-methylmorpholino)-1-(1H-pyrazol-3-yl)-1H-pyrazolo[3,4-b]pyridin-4-yl)propanamide]"
15,0.04 µM,"C[C@@H]1COCCN1c1cc(C(C)(C)O)c2cnn(-c3cc[nH]n3)c2n1 [Compound 2, (R)-2-(6-(3-methylmorpholino)-1-(1H-pyrazol-3-yl)-1H-pyrazolo[3,4-b]pyridin-4-yl)propan-2-ol]"
16,0.022 µM,C[C@@H]1COCCN1c1cc(C2(C#N)CCNCC2)c2cnn(-c3cc[nH]n3)c2n1 [Compound 83]

# From patent US12264155B2, “Compounds, pharmaceutical compositions, and methods of preparing compounds and of their use as ATR kinase inhibitors” (Repare Therapeutics Inc., priority 2018, dated 2025)
